This is an account of results in ChEMBL document CHEMBL1137745, “Computational modeling and surface plasmon resonance analyses in the assessment of peptide ligands interacting with fibrin gamma(312-324) epitope” (Eur J Med Chem, 2009).

As usually defined, the Kd is the equilibrium constant for the complex coming apart. Higher therefore signals weaker binding.

Peptide text beside a SMILES is read from it.

The nature of assay [1]: Binding affinity to gamma (312-324) epitope of human fibrinogen measured at flow rate of 30 ul/min by Biacore X system.
A short description of assay [2]: Binding affinity to gamma (312-324) epitope of human fibrinogen by Biacore X system. (SPR reads the build-up and loss of mass on a sensor chip optically.)
Assay [3] in a line: Binding affinity to gamma (312-324) epitope of human fibrinogen measured at flow rate of 5 ul/min by Biacore X system.

Take `N=C(N)NCCC[C@H](NC(=O)[C@H](CC(=O)O)NC(=O)[C@@H](N)CCCCN)C(N)=O` (H-Lys-Asp-Arg-NH2): the Kd in assay [1] amounted to 16.2 µM; in assay [2] it was 34.4 µM; in assay [3], 52.6 µM.

`N=C(N)NCCC[C@H](NC(=O)[C@H](CCC(=O)O)NC(=O)[C@@H](N)CCCCN)C(N)=O` (H-Lys-Glu-Arg-NH2): the results for the Kd in assay [1], in assay [2] and in assay [3] were 21.9 µM, 17.5 µM and 13 µM, respectively.

In the case of `NCCCC[C@H](NC(=O)[C@H](CCC(=O)O)NC(=O)[C@@H](N)CCCCN)C(N)=O` (H-Lys-Glu-Lys-NH2), the Kd came out at 15 µM in assay [1], 25 µM in assay [2] and 35 µM in assay [3].

With Ac-RDKDR-OH, the values for the Kd in assay [1], in assay [2] and in assay [3] were 16.8 µM, 23.6 µM and 30.4 µM, respectively.

On to H-RDKDR-NH2, for which the Kd in assay [1] is 0.2 µM; in assay [2], 0.25 µM; in assay [3], 0.3 µM.
